# Measurements: BindingDB's records for doi:10.1038/nchembio.481 (CGI Pharmaceuticals, 2011)
# Target: Tyrosine-protein kinase BTK (Homo sapiens, UniProt Q06187)
# Test: Btk Kinase Assay
# Conditions: pH 7.5; 23 °C
# Excerpt: Biochemical assay using Lanthascreen (human, full-lenght, C-terminal v5-His6 expressed in Sf9 cell) assay from Invitrogen.
# Tyrosine-protein kinase BTK, sequence (Q06187 whole entry): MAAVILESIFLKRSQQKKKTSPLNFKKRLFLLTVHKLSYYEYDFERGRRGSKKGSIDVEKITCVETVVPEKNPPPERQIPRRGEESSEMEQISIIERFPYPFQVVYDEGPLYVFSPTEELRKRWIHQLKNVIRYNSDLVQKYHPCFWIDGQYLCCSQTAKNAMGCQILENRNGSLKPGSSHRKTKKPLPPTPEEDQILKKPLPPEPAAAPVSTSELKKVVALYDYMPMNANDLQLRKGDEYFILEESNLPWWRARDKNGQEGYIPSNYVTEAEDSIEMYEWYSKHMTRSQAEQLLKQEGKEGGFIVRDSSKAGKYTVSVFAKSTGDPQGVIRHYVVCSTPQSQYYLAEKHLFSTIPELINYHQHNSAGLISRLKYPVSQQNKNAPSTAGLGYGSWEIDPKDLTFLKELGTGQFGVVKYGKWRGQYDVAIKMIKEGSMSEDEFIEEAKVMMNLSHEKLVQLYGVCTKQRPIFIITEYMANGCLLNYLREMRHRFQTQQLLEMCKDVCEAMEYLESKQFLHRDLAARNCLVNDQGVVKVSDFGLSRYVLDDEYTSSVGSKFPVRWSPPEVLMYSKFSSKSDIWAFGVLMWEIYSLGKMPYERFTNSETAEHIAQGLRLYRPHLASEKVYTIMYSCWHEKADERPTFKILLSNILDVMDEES
row,IC50 [µM],SMILES
1,3.14,"Cc1c(NC(=O)c2cccc(C(C)(C)C)c2)cccc1-c1cn(C)c(=O)c(Nc2ccc(C(=O)N3CCOCC3)cc2)n1 [3-(tert-Butyl)-N-(2-methyl-3-(4-methyl-6-((4-(morpholine-4-carbonyl)phenyl)amino)-5-oxo-4,5-dihydropyrazin-2-yl)phenyl)benzamide, 6]"
2,9.06,"Cc1c(NCc2ccc(C(C)(C)C)cc2)cccc1-c1cn(C)c(=O)c(Nc2ccc(C(=O)N3CCOCC3)cc2)n1 [5-(3-((4-(tert-Butyl)benzyl)amino)-2-methylphenyl)-1-methyl-3-((4-(morpholine-4-carbonyl)phenyl)amino)pyrazin-2(1H)-one, 5]"
3,5.44,"Cc1c(N)cccc1-c1cn(C)c(=O)c(Nc2ccc(C(=O)N3CCOCC3)cc2)n1 [5-(3-Amino-2-methylphenyl)-1-methyl-3-((4-(morpholine-4-carbonyl)phenyl)amino)pyrazin-2(1H)-one, 3]"
4,0.65,"Cc1c(NC(=O)c2ccc(C(C)(C)C)nc2)cccc1-c1cn(C)c(=O)c(Nc2ccc(C(=O)N3CCOCC3)cc2)n1 [6-(tert-Butyl)-N-(2-methyl-3-(4-methyl-6-((4-(morpholine-4-carbonyl)phenyl)amino)-5-oxo-4,5-dihydropyrazin-2-yl)phenyl)nicotinamide, 7]"
5,2.69,CC(=O)Nc1cccc(-c2cn(C)c(=O)c(Nc3ccc(C(=O)N4CCOCC4)cc3)n2)c1C [CID46942382]
